Assay results taken from patent US11098040B2, “Compounds and methods of use” (Ferro Therapeutics, Inc., priority 2018, dated 2021).
Where two headings read alike, the source gives them in different places.

Key:
SJSA-1 = assay: Cell proliferation (Alamar Blue) assay, SJSA-1 osteosarcoma, with/without ferrostatin; assay type: cell-based, human; settings: Homo sapiens, read-out: IC50
Description: (§1) Cell viability assay was performed to assess the potency of the compounds in human cancer cell lines 786-O (renal cell carcinoma) and SJSA-1 (osteosarcoma). Additional cell lines, such as those described above in Example 4 as well as various others, e.g., pancreatic cancer cell lines (Panc 02.13, BxPC-3, Panc 12, Panc 02.03, Panc 6.03, PSN-1, HPAC, and Capan-1) and prostate cancer cell lines (PC-3, DU145, 22Rv1, NCI-H660, BPH1, LNCaP, BM-1604, and MDA PCa 2b), were tested for select compounds as shown in Table 25.
(§2) Cells (SJSA-1, 786-O and A431) were seeded (5000 cells/100 μL/well) in 96-well tissue culture plate and incubated at 37° C./5% CO2 for 16-24 hours. The cells were then treated with compounds (25 μL of 5×). The compound concentrations were 10-0.0005 μM prepared in 3-fold serial dilutions with final DMSO concentration of 1%. The plates were then incubated for 24 h at 37° C./5% CO2 in a moist environment. Then Alamar Blue™ reagent (final concentration 1×-12.5 μL) was added to each well and incubated for 1.5 hours at 37° C./5% CO2. The plates were read on fluorescence reader at 540 nm excitation and 590 nm emission wavelengths. The IC50 values were subsequently determined using a sigmoidal dose-response curve (variable slope) in GraphPad Prism® 5 software.
(§3) Studies have shown that lipophilic antioxidants, such as ferrostatin, can rescue cells from GPX4 inhibition-induced ferroptosis. For instance, mesenchymal state GPX4-knockout cells can survive in the presence of ferrostatin, however, when the supply of ferrostatin is terminated, these cells undergo ferroptosis (see, e.g., Viswanathan et al., Nature 547:453-7, 2017). […] Accordingly, the ability of a molecule to induce ferroptotic cancer cell death, and that such ability is admonished by the addition of ferrostatin, is clear indication that the molecule is an GPX4 inhibitor.

786-O = assay: Cell proliferation (Alamar Blue) assay, 786-O renal cell carcinoma, with/without ferrostatin; assay type: cell-based; settings: Homo sapiens, 786-0, Cell Line 786-O; read-out: IC50
Description: as §1, §2, §3

KP4 = assay: Cell viability assay (CellTiter Glo), pancreatic ductal adenocarcinoma KP4; assay type: cell-based, human; settings: pancreatic cancer cell line KP4, 96 hours, CellTiter Glo, read-out: IC50 μM KP4
Procedure, shortened: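 Luminescent ATP readout (CellTiter Glo) after 96 h compound exposure, normalized to DMSO-treated cells as maximum. Compounds ran in duplicate, nine 3-fold steps from 30 μM down to 4.6 nM, final DMSO ≤0.25%; KP4 plated overnight at 1,000–10,000 cells/well. Outputs: IC50, relative IC50 or % top inhibition.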

[1] = Whole blood stability, mouse; assay type: in vitro ADME
Source text: (§4) The results of the assay on stability in blood and IC50 values for pancreatic cancer cell line KP4 are given below in Table 24.

[2] = Whole blood stability, human; assay type: in vitro ADME
Source text: as §4

| IC50 (786-O) [µM] | IC50 (KP4; Homo sapiens, KP-4, 96 h) [µM] | Whole Blood Stability % Remaining at 37° C. Mouse ([1]; 0 min) [%] | Whole Blood Stability % Remaining at 37° C. Mouse ([1]; 30 min) [%] | Whole Blood Stability % Remaining at 37° C. Mouse ([1]; 60 min) [%] | Whole Blood Stability % Remaining at 37° C. Human ([2]; 0 min) [%] | Whole Blood Stability % Remaining at 37° C. Human ([2]; 30 min) [%] | Whole Blood Stability % Remaining at 37° C. Human ([2]; 60 min) [%] | Molecule | other results |
| --- | --- | --- | --- | --- | --- | --- | --- | --- | --- |
| 1 | – | – | – | – | – | – | – | C[C@H]1Cc2c([nH]c3ccccc23)[C@@H](c2ccc(C(=O)Nc3ccccn3)cc2)N1C(=O)CCl (single isomer, unassigned) [Compound 160] | IC50 (SJSA-1; SJSA-1, Cell Line SJSA-1): 1.3 µM |
| 2.8 | – | – | – | – | – | – | – | C[C@H]1Cc2c([nH]c3ccccc23)[C@@H](c2ccc(S(=O)(=O)NC3CC3)cc2F)N1C(=O)CCl (single isomer, unassigned) [Compound 161] | IC50 (SJSA-1; SJSA-1, Cell Line SJSA-1): 4.3 µM |
| 0.022 | – | – | – | – | – | – | – | C[C@H]1Cc2c([nH]c3ccccc23)[C@H](c2ccc(S(=O)(=O)NC3CC3)cc2F)N1C(=O)CCl (single isomer, unassigned) [Compound 217] | IC50 (SJSA-1; SJSA-1, Cell Line SJSA-1): 0.028 µM |
| 0.068 | 0.01 to 0.1 | – | – | – | – | – | – | C[C@H]1Cc2c([nH]c3ccccc23)[C@H](c2ccc(N3CCN(C)CC3)cc2)N1C(=O)OCl [Compound 104] | – |
| – | < 0.01 | 100.0 | 89.5 | 2.4 | 100.0 | 85.1 | 92.7 | COC(=O)c1ccc([C@H]2c3[nH]c4ccc(OC)cc4c3C[C@H](C)N2C(=O)CCl)cc1 [Compound 113] | – |
| – | < 0.01 | 100.0 | 59.3 | 0.0 | 100.0 | 88.1 | 50.8 | C[C@H]1Cc2c([nH]c3ccc(F)cc23)[C@H](c2ccc(N3CCOCC3)cc2)N1C(=O)CCl [Compound 114] | – |
| – | < 0.01 | 100.0 | 34.2 | 0.0 | 100.0 | 72.9 | 44.0 | C[C@H]1Cc2c([nH]c3ccc(C#N)cc23)[C@H](c2ccc(N3CCOCC3)cc2)N1C(=O)CCl [Compound 115] | – |
| – | 0.1 to 0.5 | 100.0 | 82.6 | 67.1 | 100.0 | 79.2 | 62.0 | C[C@H]1Cc2c([nH]c3ccccc23)[C@H](c2ccc(NCC3CC3)cc2)N1C(=O)CCl [Compound 116] | – |
| – | < 0.01 | 100.0 | 60.7 | 0.0 | 100.0 | 100.2 | 68.8 | CCC[C@H]1Cc2c([nH]c3ccccc23)[C@H](c2ccc(N3CCOCC3)cc2)N1C(=O)CCl [Compound 118] | – |
| 2.4 | – | – | – | – | – | – | – | C[C@H]1Cc2c([nH]c3ccccc23)C(c2ccc(S(N)(=O)=O)cc2)N1C(=O)CCl (stereo partly shown) [Compound 123] | – |
| 0.245 | – | – | – | – | – | – | – | C[C@H]1Cc2c([nH]c3ccccc23)C(c2ccc(N3CCOCC3)nc2)N1C(=O)CCl (stereo partly shown) [Compound 124] | – |
| 2 | – | – | – | – | – | – | – | C[C@H]1Cc2c([nH]c3ccccc23)[C@@H](c2ccc(N3CCOCC3)cc2)N1C(=O)CCl [Compound 125, 2-chloro-1-((1R,3S)-3-methyl-1-(4-morpholinophenyl)-1,3,4,9-tetrahydro-2H-pyrido[3,4-b]indol-2-yl)ethan-1-one] | IC50 (SJSA-1; SJSA-1, Cell Line SJSA-1): 4 µM |
| > 10 | – | – | – | – | – | – | – | CC1CN(c2ccc([C@@H]3c4[nH]c5ccccc5c4C[C@H](C)N3C(=O)CCl)cc2)CCO1 (stereo partly shown) [Compound 127] | – |
| 0.591 | – | – | – | – | – | – | – | C[C@H]1Cc2c([nH]c3ccccc23)[C@H](c2cnn(C3CCOCC3)c2)N1C(=O)CCl [Compound 158] | – |
| 4.6 | – | – | – | – | – | – | – | C[C@H]1Cc2c([nH]c3ccccc23)[C@@H](c2cnn(C3CCOCC3)c2)N1C(=O)CCl [Compound 159] | – |
| 0.098 | – | – | – | – | – | – | – | C[C@H]1Cc2c([nH]c3ccccc23)[C@H](c2ccc(N3CCOCC3)nc2)N1C(=O)CCl [Compound 220] | – |
| 0.275 | – | – | – | – | – | – | – | Cc1ccc(S(=O)(=O)OCC(=O)N2[C@@H](c3ccc(N4CCOCC4)cc3)c3[nH]c4ccccc4c3C[C@@H]2C)cc1 [Compound 223] | – |
| – | – | – | – | – | – | – | – | CC#CC(=O)N1[C@@H](c2ccc(N3CCOCC3)cc2)c2[nH]c3ccccc3c2C[C@@H]1C [Compound 224] | IC50 (SJSA-1; SJSA-1, Cell Line SJSA-1): > 3 µM |
| – | – | – | – | – | – | – | – | C[C@H]1Cc2c([nH]c3ccccc23)[C@H](c2ccc(N3CCOCC3)cc2)N1C(=O)CF [Compound 227] | IC50 (SJSA-1; Cell Line SJSA-1): > 3 µM |
| 0.27 | – | – | – | – | – | – | – | C#CC(=O)N1[C@@H](c2ccc(N3CCOCC3)cc2)c2[nH]c3ccccc3c2C[C@@H]1C [Compound 231] | – |
| – | 0.01 to 0.1 | 100.0 | 0.0 | 0.0 | 100.0 | 46.0 | 27.5 | COC(=O)c1ccc([C@H]2c3sc4ccccc4c3C[C@H](C(=O)OC)N2C(=O)CCl)cc1 [Example 55c] | – |
| – | 0.1 to 0.5 | 100.0 | 0.0 | 0.0 | 100.0 | 60.8 | 41.2 | COC(=O)c1ccc([C@@H]2c3sc4ccccc4c3C[C@H](C(=O)OC)N2C(=O)CCl)cc1 [Example 55d] | – |
| – | > 1 | 100.0 | 4.5 | 0.0 | 100.0 | 35.0 | 13.2 | CC(C)(C)OC(=O)c1ccc([C@H]2c3[nH]c4ccccc4c3C[C@H](CO)N2C(=O)CCl)cc1 [Example 63a] | – |
| – | > 1 | 100.0 | 8.3 | 3.2 | 100.0 | 38.0 | 15.5 | CC(C)(C)OC(=O)c1ccc([C@@H]2c3[nH]c4ccccc4c3C[C@H](CO)N2C(=O)CCl)cc1 [Example 64a] | – |
| – | 0.5 to 1 | 100.0 | 0.0 | 0.0 | 100.0 | 47.5 | 14.8 | COC(=O)c1ccc([C@@H]2c3[nH]c4ccccc4c3C[C@H](C)N2C(=O)CCl)cc1 [Example 77a] | – |
| – | – | – | – | – | – | – | – | C[C@H]1Cc2c([nH]c3ccccc23)[C@H](c2ccc(N3CCN(C)CC3)cc2)N1C(=O)CCl [Example 104] | IC50 (SJSA-1; SJSA-1, Cell Line SJSA-1): 0.147 µM |
| – | – | – | – | – | – | – | – | C[C@H]1Cc2c([nH]c3ccccc23)C(c2ccc(N3CCOCC3)nc2)N1C(=O)CCl (stereo partly shown) [Example 124] | IC50 (SJSA-1; SJSA-1, Cell Line SJSA-1): 0.201 µM |
| – | < 0.01 | 100.0 | 0.2 | 0.2 | 100.0 | 60.8 | 42.5 | COC(=O)c1ccc([C@H]2c3[nH]c4ccccc4c3C[C@H](C(=O)OC)N2C(=O)CCl)cc1 [K601 (RSL3), reference compound] | – |
| – | – | 100.0 | 0.0 | 0.0 | 100.0 | 70.1 | 51.1 | (1S,3R)-RSL3-alkyne [Compound BX, reference compound] | IC50 (KP4): < 0.01 µM |
